Experimental data as given in patent US8783089B2, “Device and method for determining the properties of aerosol formulations” (Boehringer Ingelheim International GmbH, priority 2008, dated 2014).

Test: Characterisation of the air-liquid release system (Franz diffusion cell, online UV detection at 225 nm) with dissolved active substance
Format: physicochemical
Method: Above the membrane 6 an air chamber is formed as the second compartment 12, and the entire diffusion cell 13 (Franz cell) is surrounded by thermal insulation 9 and can be temperature controlled in the desired manner by means of a hotplate 10. The release medium is mixed by means of a magnetic stirrer 14. In order to characterise the system, first of all salbutamol sulphate, as the sample active substance, was added directly in the form of a dilute solution to the release medium (PBS, phosphate buffered saline) and measured at 225 nm in the photometer. […] Salbutamol sulphate applied to the membrane 6 reaches the maximum concentration after about ten minutes. This means that the membrane 6 forms a diffusion barrier for about six minutes. The total system has a reaction time of about ten minutes, i.e. changes in concentration caused by the release of active substance are detected with a ten minute delay. On the timescale of a typical release test over 24 hours this delay can be disregarded.

time until maximum concentration is reached (applied to the membrane 6 (regenerated cellulose), release medium PBS, 225 nm): about ten
incubation time until the active substance concentration reaches a plateau (dilute solution added directly to the release medium (PBS), measured at 225 nm): about four
Substance: salbutamol sulphate
